In patent publication US20250228239A1, “MOLECULES HAVING PESTICIDAL UTILITY, AND INTERMEDIATES, COMPOSITIONS, AND PROCESSES, RELATED THERETO” (priority 2024, published 2025) one finds pest or weed control data, which are given here for 21 molecules.

Each structure is given as a SMILES string. Where two headings read alike, the source gives them in different places.

Assay [1] concerns Beet Armyworm (Spodoptera exigua, LAPHEG). The assay is described as follows: Bioassays on Beet Armyworm (BAW), 128-well diet tray assay. It counts as in vivo. The settings on record: Spodoptera exigua. In short, it runs like this:
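Mortality of second-instar larvae (1–5/well) on artificial diet treated with 50 μg/cm^2 compound, read after 5–7 days at 25° C.; values are means of eight wells.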

Assay [2] deals with Cabbage Looper (Trichoplusia ni, TRIPNI). In words: Bioassays on Cabbage Looper (CL), 128-well diet tray assay. It counts as in vivo. The note with it: Trichoplusia ni. Put shortly: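 Percent mortality, averaged across eight replicate wells, after second-instar larvae (1–5 per well) fed for five to seven days on diet dosed at 50 μg/cm^2. Compound was applied in acetone-water 90:10 and dried; trays kept vented at 25° C under 14:10 photoperiod.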

Where [3] appears, read: Table ABC: Biological Results, species BAW, read-out: BAW.
Where [4] appears, read: Table ABC: Biological Results, species CL, read-out: CL.
[5] abbreviates: Beet Armyworm, rating class, read-out: BAW.
Setting [6] is: Cabbage Looper, rating class, read-out: CL.
[7] abbreviates: Beet Armyworm, Table ABC / ABC-DP rating, read-out: BAW rating.
[8] abbreviates: Cabbage Looper, Table ABC / ABC-DP rating, read-out: CL rating.

With `O=C(Nc1ccc(F)c(NC(=O)C(F)F)c1F)c1cc(NC(=O)[C@H]2[C@H](c3ccc(Cl)c(Cl)c3)C2(Cl)Cl)cc(F)c1Cl` [F1287, 2-Chloro-5-((1R,3R)-2,2-dichloro-3-(3,4-dichlorophenyl)cyclopropane-1-carboxamido)-N-(3-(2,2-difluoroacetamido)-2,4-difluorophenyl)-3-fluorobenzamide], the pest or weed control at 50 µg/cm2 in assay [1] (setting [3]) and in assay [2] (setting [4]) was 50 to 100% in each case.

Take `CC(=O)Nc1cc(F)ccc1NC(=O)c1cc(NC(=O)[C@H]2[C@H](c3ccc(Cl)c(Cl)c3)C2(Cl)Cl)ccc1Cl` (relative stereo) [F1125, trans-N-(2-Acetamido-4-fluorophenyl)-2-chloro-5-(2,2-dichloro-3-(3,4-dichlorophenyl)cyclopropane-1-carboxamido)benzamide]: the pest or weed control at 50 µg/cm2 in assay [1] (setting [3]) and in assay [2] (setting [4]) was 50 to 100% in each case.

Regarding `O=C(Nc1c(F)ccc(NC(=O)C(F)F)c1F)c1cc(NC(=O)[C@H]2[C@H](c3ccc(Cl)c(Cl)c3)C2(Cl)Cl)cc(F)c1F` [F1577, 5-((1R,3R)-2,2-Dichloro-3-(3,4-dichlorophenyl)cyclopropane-1-carboxamido)-N-(3-(2,2-difluoroacetamido)-2,6-difluorophenyl)-2,3-difluorobenzamide], the pest or weed control at 50 µg/cm2 in assay [1] (setting [5]) and in assay [2] (setting [6]) was 50 to 100% throughout.

As for `O=C(Nc1ccc(F)c(NC(=O)C2(F)OC(F)(F)C(F)(F)C(F)(F)C2(F)F)c1F)c1cc(NC(=O)[C@H]2[C@H](c3ccc(F)c(C(F)(F)F)c3)C2(Cl)Cl)ccc1Cl` (stereo partly drawn) [F1783, N-(3-(2-Chloro-5-((1R,3R)-2,2-dichloro-3-(4-fluoro-3-(trifluoromethyl)phenyl)cyclopropane-1-carboxamido)benzamido)-2,6-difluorophenyl)-2,3,3,4,4,5,5,6,6-nonafluorotetrahydro-2H-pyran-2-carboxamide], the pest or weed control at 50 µg/cm2 in assay [1] (setting [7]) and in assay [2] (setting [8]) was 50 to 100% throughout.

Turning to `O=C(Nc1ccc(F)c(NC(=O)C(F)F)c1F)c1cc(NC(=O)[C@H]2[C@H](c3ccc(F)c(C(F)(F)F)c3)C2(Cl)Cl)cc(F)c1Cl` [F1289, 2-Chloro-5-((1R,3R)-2,2-dichloro-3-(4-fluoro-3-(trifluoromethyl)phenyl)-cyclopropane-1-carboxamido)-N-(3-(2,2-difluoroacetamido)-2,4-difluorophenyl)-3-fluorobenzamide], the pest or weed control at 50 µg/cm2 in assay [1] (setting [3]) and in assay [2] (setting [4]) was 50 to 100% each time.

Turning to `CC(=O)Nc1c(F)ccc(NC(=O)c2cc(NC(=O)[C@H]3[C@H](c4cc(Cl)c(Cl)c(Cl)c4)C3(Cl)Cl)cc(F)c2F)c1F` [F1433, N-(3-Acetamido-2,4-difluorophenyl)-5-((1R,3R)-2,2-dichloro-3-(3,4,5-trichlorophenyl)cyclopropane-1-carboxamido)-2,3-difluorobenzamide], the pest or weed control at 50 µg/cm2 in assay [1] (setting [5]) and in assay [2] (setting [6]) was 50 to 100% throughout.

Take `CCO[C@@H](C)C(=O)Nc1c(F)ccc(NC(=O)c2cc(NC(=O)[C@H]3[C@H](c4ccc(F)c(C(F)(F)F)c4)C3(Cl)Cl)ccc2Cl)c1F` [F1731, 2-Chloro-5-((1R,3R)-2,2-dichloro-3-(4-fluoro-3-(trifluoromethyl)phenyl)cyclopropane-1-carboxamido)-N-(3-((S)-2-ethoxypropanamido)-2,4-difluorophenyl)benzamide]: the pest or weed control at 50 µg/cm2 in assay [1] (setting [5]) and in assay [2] (setting [6]) was 50 to 100% in each case.

As for `CC(=O)Nc1ccc(F)c(NC(=O)c2cc(NC(=O)[C@H]3[C@H](c4ccc(Cl)c(Cl)c4)C3(Cl)Cl)cc(F)c2F)c1F` [F1575, N-(3-Acetamido-2,6-difluorophenyl)-5-((1R,3R)-2,2-dichloro-3-(3,4-dichlorophenyl)cyclopropane-1-carboxamido)-2,3-difluorobenzamide], the pest or weed control at 50 µg/cm2 in assay [1] (setting [5]) and in assay [2] (setting [6]) was 50 to 100% each time.

With `CCC(=O)Nc1c(F)ccc(NC(=O)c2cc(NC(=O)[C@H]3[C@H](c4ccc(F)c(Br)c4)C3(Cl)Cl)ccc2Cl)c1F` [F1717, 5-((1R,3R)-3-(3-Bromo-4-fluorophenyl)-2,2-dichlorocyclopropane-1-carboxamido)-2-chloro-N-(2,4-difluoro-3-propionamidophenyl)benzamide], the pest or weed control at 50 µg/cm2 in assay [1] (setting [5]) and in assay [2] (setting [6]) was 50 to 100% in each case.

Turning to `CCCNc1c(F)ccc(NC(=O)c2cc(NC(=O)[C@H]3[C@H](c4ccc(F)c(C(F)(F)F)c4)C3(Cl)Cl)ccc2Cl)c1F` [F1838, 2-Chloro-5-((1R,3R)-2,2-dichloro-3-(4-fluoro-3-(trifluoromethyl)phenyl)cyclopropane-1-carboxamido)-N-(2,4-difluoro-3-(propylamino)phenyl)benzamide], the pest or weed control at 50 µg/cm2 in assay [1] (setting [7]) and in assay [2] (setting [8]) was 50 to 100% each time.

Consider `O=C(Nc1ccc(F)c(NC(=O)C(F)(F)F)c1)c1cc(NC(=O)[C@H]2[C@H](c3cc(Cl)cc(Cl)c3)C2(Cl)Cl)ccc1Cl` (relative stereo) [F1641, trans-2-Chloro-5-(2,2-dichloro-3-(3,5-dichlorophenyl)cyclopropane-1-carboxamido)-N-(4-fluoro-3-(2,2,2-trifluoroacetamido)phenyl)benzamide], for which the pest or weed control at 50 µg/cm2 in assay [1] (setting [5]) and in assay [2] (setting [6]) was 50 to 100% throughout.

In the case of `CC(=O)Nc1cc(NC(=O)c2cc(NC(=O)[C@H]3[C@H](c4cc(Cl)c(Cl)c(Cl)c4)C3(Cl)Cl)cc(F)c2F)c(F)cc1F` [F1581, N-(5-Acetamido-2,4-difluorophenyl)-5-((1R,3R)-2,2-dichloro-3-(3,4,5-trichlorophenyl)cyclopropane-1-carboxamido)-2,3-difluorobenzamide], the pest or weed control at 50 µg/cm2 in assay [1] (setting [5]) and in assay [2] (setting [6]) was 50 to 100% in each case.

As for `O=C(Nc1cc(NC(=O)C(F)(F)F)c(F)cc1F)c1cc(NC(=O)[C@H]2[C@H](c3cc(Cl)c(Cl)c(Cl)c3)C2(Cl)Cl)ccc1Cl` [F1519, 2-Chloro-5-((1R,3R)-2,2-dichloro-3-(3,4,5-trichlorophenyl)cyclopropane-1-carboxamido)-N-(2,4-difluoro-5-(2,2,2-trifluoroacetamido)phenyl)benzamide], the pest or weed control at 50 µg/cm2 in assay [1] (setting [5]) and in assay [2] (setting [6]) was 50 to 100% each time.

Take `Cc1cc(O)ccc1NC(=O)c1cc(NC(=O)[C@H]2[C@H](c3cc(Cl)cc(Cl)c3)C2(Cl)Cl)ccc1Cl` (relative stereo) [F1224, trans-2-chloro-5-(2,2-dichloro-3-(3,5-dichlorophenyl)cyclopropane-1-carboxamido)-N-(4-hydroxy-2-methylphenyl)benzamide]: the pest or weed control at 50 µg/cm2 in assay [1] (setting [3]) and in assay [2] (setting [4]) was 50 to 100% in each case.

For the molecule `O=C(Nc1cc(NC(=O)C(F)F)c(F)cc1F)c1cc(NC(=O)[C@H]2[C@H](c3ccc(Cl)c(Cl)c3)C2(Cl)Cl)cc(F)c1Cl` [F1402, 2-Chloro-5-((1R,3R)-2,2-dichloro-3-(3,4-dichlorophenyl)cyclopropane-1-carboxamido)-N-(5-(2,2-difluoroacetamido)-2,4-difluorophenyl)-3-fluorobenzamide], the pest or weed control at 50 µg/cm2 in assay [1] (setting [5]) and in assay [2] (setting [6]) was 50 to 100% throughout.

`O=C(Nc1c(F)ccc(NC(=O)C(F)F)c1F)c1cc(NC(=O)[C@H]2[C@H](c3ccc(Cl)c(Cl)c3)C2(Cl)Cl)ccc1F` [F1512, 5-((1R,3R)-2,2-Dichloro-3-(3,4-dichlorophenyl)cyclopropane-1-carboxamido)-N-(3-(2,2-difluoroacetamido)-2,6-difluorophenyl)-2-fluorobenzamide]: the pest or weed control at 50 µg/cm2 in assay [1] (setting [5]) and in assay [2] (setting [6]) was 50 to 100% in each case.

Take `O=C(NNC(=S)NCC(F)(F)F)c1cc(NC(=O)[C@H]2[C@H](c3cc(Cl)cc(Cl)c3)C2(Cl)Cl)ccc1Cl` (relative stereo) [F2539, trans-2,2-dichloro-N-(4-chloro-3-(2-((2,2,2-trifluoroethyl)carbamothioyl)hydrazine-1-carbonyl)phenyl)-3-(3,5-dichlorophenyl)cyclopropane-1-carboxamide]: the pest or weed control at 50 µg/cm2 in assay [1] (setting [7]) and in assay [2] (setting [8]) was 50 to 100% each time.

Take `Nc1cc(F)c(NC(=O)c2cc(NC(=O)[C@H]3[C@H](c4ccc(Cl)c(Cl)c4)C3(Cl)Cl)ccc2Cl)c(F)c1` [F1028, N-(4-Amino-2,6-difluorophenyl)-2-chloro-5-((1R,3R)-2,2-dichloro-3-(3,4-dichlorophenyl)cyclopropane-1-carboxamido)benzamide]: the pest or weed control at 50 µg/cm2 in assay [1] (setting [3]) and in assay [2] (setting [4]) was 50 to 100% in each case.

As to `O=C(Nc1cc(F)c(NC(=O)C(F)(F)F)c(F)c1)c1cc(NC(=O)[C@H]2[C@H](c3ccc(Cl)c(Cl)c3)C2(Cl)Cl)ccc1Cl` (relative stereo) [F1120, trans-2-Chloro-5-(2,2-dichloro-3-(3,4-dichlorophenyl)cyclopropane-1-carboxamido)-N-(3,5-difluoro-4-(2,2,2-trifluoroacetamido)phenyl)benzamide], the pest or weed control at 50 µg/cm2 in assay [1] (setting [3]) and in assay [2] (setting [4]) was 50 to 100% in each case.

With `O=C(Nc1ccc(F)cc1F)c1cc(NC(=O)[C@H]2[C@H](c3cc(Cl)cc(Cl)c3)C2(Cl)Cl)ccc1F` (single isomer, unassigned) [F1375], the pest or weed control at 50 µg/cm2 in assay [1] (setting [3]) and in assay [2] (setting [4]) was 50 to 100% in each case.

Turning to `O=C(Nc1ccc(F)cc1NC(=O)C(Cl)(Cl)Cl)c1cc(NC(=O)C2C(c3ccc(Cl)c(Cl)c3)C2(Cl)Cl)ccc1Cl` (stereo not drawn) [F1126], the pest or weed control at 50 µg/cm2 in assay [1] (setting [3]) and in assay [2] (setting [4]) was 50 to 100% each time.
